From patent US20070021351A1, “Liver/plasma concentration ratio for dosing hepatitis C virus protease inhibitor” (Schering Corporation, priority 2005, published 2007) come the findings set out here.

Series [1] can be described thus: Example 1: Phase 1 rising-single-dose pharmacokinetic study in healthy adult subjects. The class given is in vivo, human. Conditions: for DN AUC(I): dose-normalized (to 50 mg); for Tmax: median. On the procedure:
A Phase 1, randomized, third-party-blind (within dose level), placebo-controlled, rising-single-dose study of compounds of Formulae I-XXVI was conducted in healthy adult subjects.
Nine subjects in each group received either compound of Formula Ia (n=6) or placebo (n=3). Those subjects randomized to active compound received one of the following doses of compound of Formula Ia: 50, 100, 200, 400, 600, or 800 mg.
On Day 1, at least 10 hours prior to compound administration, an overnight fast was maintained until 4 hours following treatment administration, after which lunch was served. During the fasting period, no food or fluid (except noncarbonated water) was permitted; furthermore, drinking water was prohibited from 2 hours predose to 2 hours postdose, with the exception of the approximately 240 mL administered with the treatments.
Blood samples (7 mL each) for the determination of compound of Formula Ia concentrations were collected immediately prior to dosing (0 hour), and at 0.25, 0.5, 0.75, 1, 1.5, 2, 3, 4, 5, 6, 8, 10, 12, 18, 24, 36, 48, 72, and 144 hours postdose. The blood samples were collected into tubes containing EDTA. The samples were separated by centrifugation at 4° C. for 15 minutes at 1500 g to obtain the plasma, and the plasma samples frozen at −20° C. until assayed.
Plasma concentrations of compound of Formula Ia were determined using a validated liquid chromatography tandem mass spectrometry (LC-MS/MS) method. The assay lower limit of quantitation (LLOQ) was 0.50 ng/mL, and the method was validated over the concentration range of 0.50 to 1000 ng/mL.
The mean and percent coefficients of variation (% CV) were calculated for the plasma concentrations of compound of Formula Ia at each time point. Concentration values less than the assay LLOQ were reported as and set to zero in the calculations and tables. The plasma concentration-time data for compound of Formula Ia were subjected to pharmacokinetic analysis by noncompartmental methods using WinNonlin software. Nominal sampling times were used for pharmacokinetic analysis.
For each subject, the following compound of Formula Ia pharmacokinetic parameters were determined: • Cmax Maximum observed plasma concentration • Tmax Time of maximum observed plasma concentration • tf Time of final quantifiable sample • AUC(tf) Area under the plasma concentration-time curve from time 0 to tf • AUC(I) Area under the plasma concentration-time curve from time 0 to infinity [AUC(I)=AUC(tf)+C(tf)estimated/k, where k and C(tf)estimated are terminal elimination rate constant and estimated concentration at final quantifiable sample, respectively] • t½ Terminal-phase half-life (t½=In2/k) • CL/F Apparent total body clearance (CL/F=Dose/AUC[I]) • Vd/F Apparent volume of distribution (Vd/F=CL/F*(t1/2/0.693))
Dose-adjusted (to 50 mg) Cmax, AUC(I), and AUC(tf) values were also calculated. Cmax, Tmax, and tf were the observed values. The terminal phase rate constant (k) was calculated as the negative of the slope of the log-linear terminal portion of the plasma concentration-time curve using linear regression (at least three time points). The number of points needed to determine the terminal phase rate constant was selected by WinNonlin software.
Summary statistics, including means, standard deviations, and coefficients of variation (CV) expressed as a percent, were computed for the single-dose plasma compound of Formula Ia concentration data at each sampling time point and for the derived pharmacokinetic parameters for each dose level using a standard program based on SAS/STAT (Release 6.12; SAS Institute Inc., North Carolina).
The log-transformed dose-adjusted (to 50 mg) Cmax and AUC values of compound of Formula Ia were statistically analyzed using an analysis of variance (ANOVA) model. The effect due to treatment (dose) was extracted. Ninety-five percent confidence intervals (CIs) for the means at each dose level, based on the nontransformed data, were provided. […]

Series [2] has as its system HCV polyprotein processing. Put plainly: Kinetic studies following polyprotein processing intermediates. The class given is cell-based.
[3] abbreviates: single oral 600 mg, fasted healthy adults, mean, n=6.

One may read the Tmax as the time at which the peak concentration occurs. One may read the Cmax as the maximum level reached in the sampled fluid or tissue. In general, t½ refers to the time in which the quantity being followed falls by half. A low value points to fast loss.

On to `CC(C)(C)NC(=O)N[C@H](C(=O)N1C[C@H]2[C@@H]([C@H]1C(=O)NC(CC1CCC1)C(=O)C(N)=O)C2(C)C)C(C)(C)C` (mixture of isomers) [Formula Ia, (1R,5S)-N-[3-Amino-1-(Cyclobutylmethyl)-2,3-Dioxopropyl]-3-[2(S)-[[[(1,1-Dimethylethyl)Amino]Carbonyl]Amino]-3,3-Dimethyl-1-Oxobutyl]-6,6-Dimethyl-3-Azabicyclo[3.1.0]Hexan-2(S)-Carboxamide], for which the “DN AUC(I)” value in series [1] (single oral 50 mg, mean, n=6) was 181 ng·h/mL; in series [1] (single oral 100 mg, mean, n=6), 172 ng·h/mL; in series [1] (single oral 200 mg, mean, n=6) it was 212 ng·h/mL; in series [1] (single oral 400 mg, mean, n=6), 195 ng·h/mL; in series [1] (single oral 600 mg, mean, n=6), 180 ng·h/mL; in series [1] (single oral 800 mg, mean, n=6) it was 145 ng·h/mL. Also, the “AUC(I)” value in series [1] (single oral 50 mg, fasted healthy adults, mean, n=6) worked out at 181 ng·h/mL; in series [1] (setting [3]), 2158 ng·h/mL; in series [1] (single oral 800 mg, fasted healthy adults, mean, n=6) it was 2320 ng·h/mL. For the same compound, the time of peak concentration (Tmax) in series [1] (single oral 50 mg, fasted healthy adults, n=6) was found to be 1.50 h; in series [1] (single oral 400 mg, fasted healthy adults, n=6) it was 1.75 h; in series [1] (single oral 600 mg, fasted healthy adults, n=6), 2.25 h. This compound also returned a Cmax in series [1] (single oral 400 mg, fasted healthy adults, mean, n=6) of 445 ng/mL. In series [1] (setting [3]), this compound yielded a t½ of 10.2 h. In addition, in series [1] (single oral doses 50-800 mg), the “dose dependence of Cmax and AUC” value is given as “increased in a dose-related manner up to the 600 mg dose”. Besides, in series [2], the “time until effects become evident” value is given as “one”.
